Assay results taken from patent US9428464B2, “Kynurenine-3-monooxygenase inhibitors, pharmaceutical compositions, and methods of use thereof” (CHDI Foundation, Inc., priority 2011, dated 2016).

system: KMO; assay: KMO activity assay: L-Kynurenine hydroxylation to 3-Hydroxy-Kynurenine, quantified by LC/MS; format: biochemical; conditions: compound at 10 uM; footnote: some portion of activity of amides may be due to contribution of acid precursor
How it was run: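 Enzyme: KMO from mitochondria isolated from CHO cells expressing GST-His-KMO, with L-kynurenine as substrate (stock 10 mM in 100 mM potassium phosphate, pH 7.4). Conversion to 3-hydroxy-kynurenine quantified by LC/MS multiple reaction monitoring; compound stocks 10 mM in DMSO.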

First: NC(=O)[C@@H]1CCCN1C(=O)c1cc(-c2ccc(Cl)c(Cl)c2)ncn1 [(S)-1-[6-(3,4-Dichloro-phenyl)-pyrimidine-4-carbonyl]-pyrrolidine-2-carboxylic acid amide]
Second: O=C(c1cc(-c2ccc(Cl)c(Cl)c2)ncn1)N1CCC[C@@H](O)C1 [[6-(3,4-Dichloro-phenyl)-pyrimidin-4-yl]-((R)-3-hydroxy-piperidin-1-yl)-methanone]
The “% Inhibition at 10 uM” value of the first is lower: 99.05% for the first, 99.86% for the second.

Going from `O=C(N[C@@H](CO)C(=O)O)c1cc(-c2ccc(Cl)c(Cl)c2)ncn1` [(S)-2-{[6-(3,4-Dichloro-phenyl)-pyrimidine-4-carbonyl]-amino}-3-hydroxy-propionic acid] to `C[C@H](NC(=O)c1cc(-c2ccc(Cl)c(Cl)c2)ncn1)C(=O)O` [(S)-2-{[6-(3,4-Dichloro-phenyl)-pyrimidine-4-carbonyl]-amino}-propionic acid], the “% Inhibition at 10 uM” value falls from 101.22% to 100.865%.

First: O=S(=O)(Nc1cc(-c2ccc(Cl)c(Cl)c2)ccn1)c1ccccc1 [N-[4-(3,4-dichlorophenyl)pyridin-2-yl]benzenesulfonamide]
Second: O=S(=O)(Nc1cc(-c2ccc(F)c(Cl)c2)ncn1)c1ccccc1 [N-[6-(3-Chloro-4-fluoro-phenyl)-pyrimidin-4-yl]-benzenesulfonamide]
The “% Inhibition at 10 uM” value of the first is lower: 17% for the first, 98% for the second.

Compared with `Cc1ccc(S(=O)(=O)Nc2cc(-c3ccc(Cl)c(Cl)c3)ncn2)c(C)c1` [N-[6-(3,4-dichlorophenyl)pyrimidin-4-yl]-2,4-dimethylbenzene-1-sulfonamide], `O=S(=O)(Nc1cc(-c2ccc(Cl)c(Cl)c2)ncn1)c1ccccc1F` [N-[6-(3,4-dichlorophenyl)pyrimidin-4-yl]-2-fluorobenzene-1-sulfonamide] is higher in “% Inhibition at 10 uM” value: 56% for the first, 103% for the second.

First: O=S(=O)(Nc1cc(-c2ccc(Cl)c(Cl)c2)ncn1)c1cccc(OC(F)(F)F)c1 [N-[6-(3,4-dichlorophenyl)pyrimidin-4-yl]-3-(trifluoromethoxy)benzene-1-sulfonamide]
Second: O=S(=O)(Nc1cc(-c2ccc(Cl)c(Cl)c2)ncn1)c1cccc(F)c1 [N-[6-(3,4-dichlorophenyl)pyrimidin-4-yl]-3-fluorobenzene-1-sulfonamide]
The “% Inhibition at 10 uM” value of the first is lower: 100% for the first, 102% for the second.

Compared with `CN(c1cc(-c2ccc(Cl)c(Cl)c2)ncn1)S(=O)(=O)c1ccccc1` [N-[6-(3,4-dichlorophenyl)pyrimidin-4-yl]-N-methylbenzenesulfonamide], `O=C(NS(=O)(=O)c1ccccc1)c1cc(-c2cccc(Cl)c2)ncn1` [N-[6-(3-Chloro-phenyl)-pyrimidine-4-carbonyl]-benzenesulfonamide] is higher in “% Inhibition at 10 uM” value: 27% for the first, 100.67% for the second.

Compared with `CS(=O)(=O)NC(=O)c1cc(-c2cccc(Cl)c2)ncn1` [N-[6-(3-Chloro-phenyl)-pyrimidine-4-carbonyl]-methanesulfonamide], `CC(C)OC(=O)c1cc(-c2ccc(Cl)c(Cl)c2)ncn1` [propan-2-yl 6-(3,4-dichlorophenyl)pyrimidine-4-carboxylate] is lower in “% Inhibition at 10 uM” value: 101.58% for the first, 100% for the second.

Compared with `O=S(=O)(Nc1cc(-c2ccc(F)c(Cl)c2)ncn1)c1ccccc1F` [N-[6-(3-chloro-4-fluorophenyl)pyrimidin-4-yl]-2-fluorobenzene-1-sulfonamide], `O=C(c1cc(-c2ccc(Cl)c(Cl)c2)ncn1)N1CCc2ccc(F)cc21` [[6-(3,4-Dichloro-phenyl)-pyrimidin-4-yl]-(6-fluoro-2,3-dihydro-indol-1-yl)-methanone] is higher in “% Inhibition at 10 uM” value: 100% for the first, 100.71% for the second.

First: CC(=O)N[C@@H]1CCN(C(=O)c2cc(-c3ccc(Cl)c(Cl)c3)ncn2)C1 [N-{(R)-1-[6-(3,4-Dichloro-phenyl)-pyrimidine-4-carbonyl]-pyrrolidin-3-yl}-acetamide]
Second: CC(=O)N[C@H]1CCN(C(=O)c2cc(-c3ccc(Cl)c(Cl)c3)ncn2)C1 [N-{(S)-1-[6-(3,4-Dichloro-phenyl)-pyrimidine-4-carbonyl]-pyrrolidin-3-yl}-acetamide]
The “% Inhibition at 10 uM” value of the first is lower: 98.55% for the first, 100.27% for the second.

First: CN(C)CCC(=O)N[C@H]1CCN(C(=O)c2cc(-c3ccc(Cl)c(Cl)c3)ncn2)C1 [N-{(S)-1-[6-(3,4-Dichloro-phenyl)-pyrimidine-4-carbonyl]-pyrrolidin-3-yl}-3-dimethylamino-propionamide]
Second: O=C(c1cc(-c2ccc(Cl)c(Cl)c2)ncn1)N1CC[C@@H](O)C1 [[6-(3,4-Dichloro-phenyl)-pyrimidin-4-yl]-((R)-3-hydroxy-pyrrolidin-1-yl)-methanone]
The “% Inhibition at 10 uM” value of the first is lower: 91.785% for the first, 101.49% for the second.

First: CN1CCN(C(=O)c2cc(-c3ccc(Cl)c(Cl)c3)ncn2)CC1 [[6-(3,4-Dichloro-phenyl)-pyrimidin-4-yl]-(4-methyl-piperazin-1-yl)-methanone]
Second: O=C(c1cc(-c2ccc(Cl)c(Cl)c2)ncn1)N1CCNCC1 [[6-(3,4-dichloro-phenyl)-pyrimidin-4-yl]-piperazin-1-yl-methanone]
The “% Inhibition at 10 uM” value of the first is higher: 94.86% for the first, 71.34% for the second.

Compared with `C[C@@H]1CN(C(=O)c2cc(-c3ccc(Cl)c(Cl)c3)ncn2)C[C@H](C)N1.O=C(O)C(F)(F)F` [[6-(3,4-Dichloro-phenyl)-pyrimidin-4-yl]-((3S,5R)-3,5-dimethyl-piperazin-1-yl)-methanone, trifluoro-acetic acid salt], `O=C(c1cc(-c2ccc(Cl)c(Cl)c2)ncn1)N1CCC[C@H](O)C1` [[6-(3,4-Dichloro-phenyl)-pyrimidin-4-yl]-((S)-3-hydroxy-piperidin-1-yl)-methanone] is higher in “% Inhibition at 10 uM” value: 95.92% for the first, 99.98% for the second.

First: O=C(c1cc(-c2ccc(Cl)c(Cl)c2)ncn1)N1CCC(C(=O)N2CCOCC2)C1 (stereo not drawn) [[6-(3,4-Dichloro-phenyl)-pyrimidin-4-yl]-[3-(morpholine-4-carbonyl)-pyrrolidin-1-yl]-methanone]
Second: O=C(c1cc(-c2ccc(Cl)c(Cl)c2)ncn1)N1CCN(C(=O)N2CCOCC2)CC1 [[6-(3,4-Dichloro-phenyl)-pyrimidin-4-yl]-[4-(morpholine-4-carbonyl)-piperazin-1-yl]-methanone]
The “% Inhibition at 10 uM” value of the first is higher: 90.83% for the first, 40.38% for the second.

`CCCCOC(=O)c1cc(-c2ccc(Cl)c(Cl)c2)ncn1` [butyl 6-(3,4-dichlorophenyl)pyrimidine-4-carboxylate] was tested, and the “% Inhibition at 10 uM” value was 100%.
